Calls of active or inactive are those of the source. The rule behind the calls is not given here.

For one assay, the system named is Mus musculus. Kind of assay: Analgesic activity in Kunming mouse assessed as inhibition of acetic acid-induced writhing at 5 mg/kg, ip pretreated with compound for 30 mins followed by acetic acid challenge and measured after 30 mins. The following applies: time 60.0 min. It counts as functional, organism-based.
Take `C/C=C1\CN(C)[C@H]2C[C@@]3(C(=O)N(OC)c4ccccc43)[C@H]3C[C@@H]1[C@@H]2CO3`: the result was Active. As for `C=C[C@@]12CN[C@@H]3C[C@]14C(=Nc1ccccc14)[C@H]1C[C@@H]2[C@@H]3CO1`, the result was Active. Still for that read-out and setting: then `COc1ccc2c(c1)N(OC)C(=O)[C@@]21C[C@@H]2N[C@](CO)([C@@H](C)O)[C@@H]3C[C@H]1OC[C@H]23`, with “Active”.

As for `C/C=C1\C[N@+](C)([O-])[C@H]2C[C@@]3(C(=O)Nc4ccccc43)[C@H]3C[C@@H]1[C@@H]2CO3`, the outcome was Active.

`C/C=C1\CN(C)[C@H]2C[C@@]3(C(=O)N(OC)c4cc(O)ccc43)[C@H]3C[C@@H]1[C@@H]2CO3`: the outcome was Active. On the same count and under the same terms, then `C/C=C1\C[N@+](C)([O-])[C@H]2C[C@@]3(C(=O)N(OC)c4ccccc43)[C@H]3C[C@@H]1[C@@H]2CO3`, with “Active”; and `C/C=C1\C[N@+](C)([O-])[C@H]2C[C@@]3(C(=O)N(OC)c4cc(O)ccc43)[C@H]3C[C@@H]1[C@@H]2CO3`, with “Active”; and `C/C=C1\C[N@@+]2([O-])[C@H]3C[C@@H]1[C@@H](CO)[C@@H]2Cc1c3[nH]c2ccccc12`, with “Active”. In the case of `CON1C(=O)[C@@]2(C[C@@H]3N[C@](CO)([C@@H](C)O)[C@@H]4C[C@H]2OC[C@H]34)c2ccccc21`, the result was Active. Consider `C=CC12CN[C@@H]3[C@H]4CO[C@H](CC41)[C@]1(C(=O)Nc4ccccc41)[C@@H]32`, for which the outcome was Active. Same read-out and setting: then `CC[C@@]1(CO)N[C@H]2C[C@@]3(C(=O)N(OC)c4ccccc43)[C@H]3C[C@@H]1[C@@H]2CO3`, with “Active”; and `C/C=C1\CN2[C@H]3C[C@@H]1[C@H](CO)[C@@H]2Cc1c3[nH]c2ccccc12`, with “Active”. The same measure, in the same setting: then `CC[C@@]12OC(=O)N[C@@H]1N(C)[C@H]1C[C@@]3(C(=O)N(OC)c4ccccc43)[C@H]3C[C@@H]2[C@@H]1CO3`, with “Active”. Same read-out and setting: then `c1ccc2[nH]c(-c3cc4c(cn3)CCCC4)cc2c1`, with “Active”; and `C/C=C1\CN[C@H]2C[C@@]3(C(=O)N(OC)c4cc(OC)ccc43)[C@H]3C[C@@H]1[C@@H]2CO3`, with “Active”.

Consider `C/C=C1\CN(C)[C@H]2C[C@@]3(C(=O)Nc4ccccc43)[C@H]3C[C@@H]1[C@@H]2CO3`, for which the result was Active. On the same count and under the same terms, then `C/C=C1\CN2[C@H]3C[C@@H]1[C@@H](CO)[C@@H]2Cc1c3[nH]c2ccccc12`, with “Active”.

The next assay deals with Mus musculus. Kind of assay: Analgesic activity in Kunming mouse assessed as inhibition of acetic acid-induced writhing at 0.04 mg/kg, ip pretreated with compound for 30 mins followed by acetic acid challenge and measured after 30 mins. It counts as functional. Conditions: 1 h, time 60 min.
As for `C/C=C1\C[N@+](C)([O-])[C@H]2C[C@@]3(C(=O)Nc4ccccc43)[C@H]3C[C@@H]1[C@@H]2CO3`, the inhibition in vivo at 0.04 mg/kg was 67.6%.

The subject of the next assay is Mus musculus. As to the kind of experiment: Analgesic activity in Kunming mouse assessed as inhibition of acetic acid-induced writhing at 1 mg/kg, ip pretreated with compound for 30 mins followed by acetic acid challenge and measured after 30 mins. The format is functional. Conditions: 1 h, time 60 min.
As for `CC[C@@]12OC(=O)N[C@@H]1N(C)[C@H]1C[C@@]3(C(=O)N(OC)c4ccccc43)[C@H]3C[C@@H]2[C@@H]1CO3`, the inhibition in vivo at 1 mg/kg worked out at 64.7%.

A further assay relates to Mus musculus. Kind of assay: Analgesic activity in Kunming mouse assessed as inhibition of acetic acid-induced writhing at 0.2 mg/kg, ip pretreated with compound for 30 mins followed by acetic acid challenge and measured after 30 mins. It counts as functional. Conditions: 1 h, time 60 min.
Take `C/C=C1\C[N@+](C)([O-])[C@H]2C[C@@]3(C(=O)Nc4ccccc43)[C@H]3C[C@@H]1[C@@H]2CO3`: the inhibition in vivo at 0.2 mg/kg was found to be 76.1%.
